This passage reports IC50 results from patent US20230059136A1, “THE COMPOUNDS AND COMPOSITIONS FOR TREATING CONDITIONS ASSOCIATED WITH NLRP ACTIVITY” (Novartis AG, priority 2018, published 2023).

Broadly, the IC50 is the midpoint of a concentration-inhibition curve.

Molecules are shown by their SMILES.

The subject of the assay is IL-1β production in PMA-differentiated THP-1 cells. As to the kind of experiment: IL-1β production in PMA-differentiated THP-1 cells stimulated with gramicidin (hTHP-1 assay containing 2% fetal bovine serum). The following applies: Table B1; 2% fetal bovine serum; class symbols; read-out: hTHP-1 IC50 (Average IC50 of compounds in hTHP-1 assay). The assay is classed as cell-based, human. An outline of the steps:
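THP-1 cells were differentiated with PMA 20 ng/ml for 16-18 h, then plated at 50,000 cells/well in RPMI with 2% FBS. They were preincubated 1 h with compound (100–0.0017 μM final, 0.37% DMSO), then stimulated with gramicidin 5 μM for 2 h. Supernatant IL-1β was measured by HTRF.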

For the compound `COCc1cc(C(C)C)c(CC(=O)N=S(N)(=O)c2cc(C(C)(C)O)cs2)c(C(C)C)c1` (single isomer, unassigned) [Example 158, (S) or (R)-N-(amino(4-(2-hydroxypropan-2-yl)thiophen-2-yl)(oxo)-λ^6-sulfaneylidene)-2-(2,6-diisopropyl-4-(methoxymethyl)phenyl)acetamide], the IC50 fell in the range of 1000 to 5000 nM.

`CC(C)c1ccc(F)c(C(C)C)c1CC(=O)N=S(N)(=O)c1cc(C(C)(C)O)cs1` (single isomer, unassigned) [Example 159, (R) or (S)-N-(amino(4-(2-hydroxypropan-2-yl)thiophen-2-yl)(oxo)-λ^6-sulfaneylidene)-2-(3-fluoro-2,6-diisopropylphenyl) acetamide]: the IC50 was 40 to 200 nM.

With `CC(C)c1ccc(F)c(C(C)C)c1CC(=O)N=S(N)(=O)c1cc(C(C)(C)O)cs1` (single isomer, unassigned) [Example 160, (S) or (R)-N-(amino(4-(2-hydroxypropan-2-yl)thiophen-2-yl)(oxo)-λ^6-sulfaneylidene)-2-(3-fluoro-2,6-diisopropylphenyl) acetamide], the IC50 was 200 to 1000 nM.

In the case of `CC(C)c1ccc(F)c(C(C)C)c1CC(=O)N=S(N)(=O)c1cnc(C(C)(C)O)s1` (single isomer, unassigned) [Example 161, (R) or (S)-N-(amino(2-(2-hydroxypropan-2-yl)thiazol-5-yl)(oxo)-λ^6-sulfaneylidene)-2-(3-fluoro-2,6-diisopropylphenyl) acetamide], the IC50 was 40 to 200 nM.

With `CC(C)c1ccc(F)c(C(C)C)c1CC(=O)N=S(N)(=O)c1cnc(C(C)(C)O)s1` (single isomer, unassigned) [Example 162, (S) or (R)-N-(amino(2-(2-hydroxypropan-2-yl)thiazol-5-yl)(oxo)-λ^6-sulfaneylidene)-2-(3-fluoro-2,6-diisopropylphenyl) acetamide], the IC50 lay within 5000 to 30000 nM.

With `CC(C)c1cc(-c2ccc3ccccc3c2)cc(C(C)C)c1CC(=O)N=S(N)(=O)c1cnc(C(C)(C)O)s1` (single isomer, unassigned) [Example 163, (R) or (S)-N-(amino(2-(2-hydroxypropan-2-yl)thiazol-5-yl)(oxo)-λ^6-sulfaneylidene)-2-(2,6-diisopropyl-4-(naphthalen-2-yl)phenyl) acetamide], the IC50 is 40 to 200 nM.

For the compound `CC(C)c1cc(-c2ccc3ccccc3c2)cc(C(C)C)c1CC(=O)N=S(N)(=O)c1cnc(C(C)(C)O)s1` (single isomer, unassigned) [Example 164, (S) or (R)-N-(amino(2-(2-hydroxypropan-2-yl)thiazol-5-yl)(oxo)-λ^6-sulfaneylidene)-2-(2,6-diisopropyl-4-(naphthalen-2-yl)phenyl) acetamide], the half-inhibitory concentration (IC50) fell in the range of 1000 to 5000 nM.

`CC(C)c1cc(-c2ccc3c(c2)OC(F)(F)O3)cc(C(C)C)c1CC(=O)N=S(N)(=O)c1ncc(C(C)(C)O)s1` (single isomer, unassigned) [Example 165, (S) or (R)-N-(amino(5-(2-hydroxypropan-2-yl)thiazol-2-yl)(oxo)-λ^6-sulfaneylidene)-2-(4-(2,2-difluorobenzo[d] [1,3]dioxol-5-yl)-2,6-diisopropylphenyl) acetamide]: the concentration for half-maximal inhibition (IC50) was 1000 to 5000 nM.

In the case of `CC(C)c1cc(-c2ccc3c(c2)OC(F)(F)O3)cc(C(C)C)c1CC(=O)N=S(N)(=O)c1ncc(C(C)(C)O)s1` (single isomer, unassigned) [Example 166, (R) or (S)-N-(amino(5-(2-hydroxypropan-2-yl)thiazol-2-yl)(oxo)-λ^6-sulfaneylidene)-2-(4-(2,2-difluorobenzo[d] [1,3]dioxol-5-yl)-2,6-diisopropylphenyl) acetamide], the IC50 was in the range of 40 to 200 nM.

In the case of `Cc1ccc(-c2cc(C(C)C)c(CC(=O)N=S(N)(=O)c3ncc(C(C)(C)O)s3)c(C(C)C)c2)cc1C` (single isomer, unassigned) [Example 167, (S) or (R)-N-(amino(5-(2-hydroxypropan-2-yl)thiazol-2-yl)(oxo)-λ^6-sulfaneylidene)-2-(3,5-diisopropyl-3′,4′-dimethyl-[1,1′-biphenyl]-4-yl)acetamide], the IC50 is 1000 to 5000 nM.

For the compound `Cc1ccc(-c2cc(C(C)C)c(CC(=O)N=S(N)(=O)c3ncc(C(C)(C)O)s3)c(C(C)C)c2)cc1C` (single isomer, unassigned) [Example 168, (R) or (S)-N-(amino(5-(2-hydroxypropan-2-yl)thiazol-2-yl)(oxo)-λ^6-sulfaneylidene)-2-(3,5-diisopropyl-3′,4'-dimethyl-[1,1′-biphenyl]-4-yl)acetamide], the IC50 fell in the range of 200 to 1000 nM.

Consider `CC(C)c1cc(-c2ccc(Cl)c(Cl)c2)cc(C(C)C)c1CC(=O)N=S(N)(=O)c1ncc(C(C)(C)O)s1` (single isomer, unassigned) [Example 169, (S) or (R)-N-(amino(5-(2-hydroxypropan-2-yl)thiazol-2-yl)(oxo)-λ^6-sulfaneylidene)-2-(3′,4′-dichloro-3,5-diisopropyl-[1,1′-biphenyl]-4-yl)acetamide], for which the IC50 is 1000 to 5000 nM.

For `CC(C)c1cc(-c2ccc(Cl)c(Cl)c2)cc(C(C)C)c1CC(=O)N=S(N)(=O)c1ncc(C(C)(C)O)s1` (single isomer, unassigned) [Example 170, (R) or (S)-N-(amino(5-(2-hydroxypropan-2-yl)thiazol-2-yl)(oxo)-λ^6-sulfaneylidene)-2-(3′,4′-dichloro-3,5-diisopropyl-[1,1′-biphenyl]-4-yl)acetamide], the IC50 is 200 to 1000 nM.

In the case of `CC(C)c1cc(-c2ccc3c(c2)COCC3)cc(C(C)C)c1CC(=O)N=S(N)(=O)c1cnc(C(C)(C)O)s1` (single isomer, unassigned) [Example 171, (R) or (S)-N-(amino(2-(2-hydroxypropan-2-yl)thiazol-5-yl)(oxo)-λ^6-sulfaneylidene)-2-(4-(isochroman-7-yl)-2,6-diisopropylphenyl) acetamide], the half-maximal inhibitory concentration (IC50) fell in the range of 200 to 1000 nM.

Regarding `CC(C)c1cc(-c2ccc3c(c2)COCC3)cc(C(C)C)c1CC(=O)N=S(N)(=O)c1cnc(C(C)(C)O)s1` (single isomer, unassigned) [Example 172, (S) or (R)-N-(amino(2-(2-hydroxypropan-2-yl)thiazol-5-yl)(oxo)-λ^6-sulfaneylidene)-2-(4-(isochroman-7-yl)-2,6-diisopropylphenyl) acetamide], the IC50 fell in the range of 5000 to 30000 nM.

For the compound `Cc1sc(S(N)(=O)=NC(=O)Cc2c(C(C)C)ccc(F)c2C(C)C)cc1C(C)(C)O` (single isomer, unassigned) [Example 173, (R) or (S)-N-(amino(4-(2-hydroxypropan-2-yl)-5-methylthiophen-2-yl)(oxo)-λ^6-sulfaneylidene)-2-(3-fluoro-2,6-diisopropylphenyl) acetamide], the 50% inhibitory concentration (IC50) fell in the range of 200 to 1000 nM.

As for `Cc1sc(S(N)(=O)=NC(=O)Cc2c(C(C)C)ccc(F)c2C(C)C)cc1C(C)(C)O` (single isomer, unassigned) [Example 174, (S) or (R)-N-(amino(4-(2-hydroxypropan-2-yl)-5-methylthiophen-2-yl)(oxo)-λ^6-sulfaneylidene)-2-(3-fluoro-2,6-diisopropylphenyl) acetamide], the 50% inhibitory concentration (IC50) lay within 5000 to 30000 nM.

For `CC(C)c1ccc(F)c(C(C)C)c1CC(=O)N=S(N)(=O)c1ccc(C(C)(C)O)s1` (single isomer, unassigned) [Example 175, (S) or (R)-N-(amino(5-(2-hydroxypropan-2-yl)thiophen-2-yl)(oxo)-λ^6-sulfaneylidene)-2-(3-fluoro-2,6-diisopropylphenyl) acetamide], the IC50 fell in the range of 1000 to 5000 nM.

Take `CC(C)c1ccc(F)c(C(C)C)c1CC(=O)N=S(N)(=O)c1ccc(C(C)(C)O)s1` (single isomer, unassigned) [Example 176, (R) or (S)-N-(amino(5-(2-hydroxypropan-2-yl)thiophen-2-yl)(oxo)-λ^6-sulfaneylidene)-2-(3-fluoro-2,6-diisopropylphenyl) acetamide]: the IC50 lay in the range of 200 to 1000 nM.

Regarding `CC(C)c1cc(F)c(F)c(C(C)C)c1CC(=O)N=S(N)(=O)c1nc(C(C)(C)O)cs1` (single isomer, unassigned) [Example 177, (R) or (S)-N-(amino(4-(2-hydroxypropan-2-yl)thiazol-2-yl)(oxo)-λ^6-sulfaneylidene)-2-(3,4-difluoro-2,6-diisopropylphenyl) acetamide], the half-inhibitory concentration (IC50) was 40 to 200 nM.

Take `CC(C)c1cc(F)c(F)c(C(C)C)c1CC(=O)N=S(N)(=O)c1nc(C(C)(C)O)cs1` (single isomer, unassigned) [Example 178, (S) or (R)-N-(amino(4-(2-hydroxypropan-2-yl)thiazol-2-yl)(oxo)-λ^6-sulfaneylidene)-2-(3,4-difluoro-2,6-diisopropylphenyl) acetamide]: the 50% inhibitory concentration (IC50) lay in the range of 1000 to 5000 nM.

`CC(C)c1ccc(C#N)c(C(C)C)c1CC(=O)N=S(N)(=O)c1nc(C(C)(C)O)cs1` (single isomer, unassigned) [Example 179, (R) or (S)-N-(amino(4-(2-hydroxypropan-2-yl)thiazol-2-yl)(oxo)-λ^6-sulfaneylidene)-2-(3-cyano-2,6-diisopropylphenyl) acetamide]: the IC50 lay within 200 to 1000 nM.

With `CC(C)c1ccc(C#N)c(C(C)C)c1CC(=O)N=S(N)(=O)c1nc(C(C)(C)O)cs1` (single isomer, unassigned) [Example 180, (S) or (R)-N-(amino(4-(2-hydroxypropan-2-yl)thiazol-2-yl)(oxo)-λ^6-sulfaneylidene)-2-(3-cyano-2,6-diisopropylphenyl) acetamide], the IC50 was 5000 to 30000 nM.

As to `CC(C)c1ccc(F)c(C(C)C)c1CC(=O)N=S(N)(=O)c1nc(C(C)(C)O)cs1` (single isomer, unassigned) [Example 181, (R) or (S)-N-(amino(4-(2-hydroxypropan-2-yl)thiazol-2-yl)(oxo)-λ^6-sulfaneylidene)-2-(3-fluoro-2,6-diisopropylphenyl) acetamide], the IC50 was 40 to 200 nM.
